Measured values published in US12577247B2 (BUGWORKS RESEARCH, INC., priority 2021, dated 2026).

Tests used:
A2B receptor = biological target: T1, A2B receptor (Homo sapiens, UniProt P29275); assay: A2bR antagonism IC50, cAMP TR-FRET in HEK-293 cells, high concentration of adenosine (30 μM); conditions: A2BR IC50 (nM) (@30 μM Adenosine), HEK-293 cells expressing A2B receptor; agonist adenosine 30 μM; 2% HSA; inhibition of cAMP;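 also: compounds preincubated 10 min with cells, then adenosine stimulation 30 min at room temperature in buffer with Rolipram 100 µM and EHNA 30 µM, TR-FRET read after 1 h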
T1 sequence (P29275 1-332): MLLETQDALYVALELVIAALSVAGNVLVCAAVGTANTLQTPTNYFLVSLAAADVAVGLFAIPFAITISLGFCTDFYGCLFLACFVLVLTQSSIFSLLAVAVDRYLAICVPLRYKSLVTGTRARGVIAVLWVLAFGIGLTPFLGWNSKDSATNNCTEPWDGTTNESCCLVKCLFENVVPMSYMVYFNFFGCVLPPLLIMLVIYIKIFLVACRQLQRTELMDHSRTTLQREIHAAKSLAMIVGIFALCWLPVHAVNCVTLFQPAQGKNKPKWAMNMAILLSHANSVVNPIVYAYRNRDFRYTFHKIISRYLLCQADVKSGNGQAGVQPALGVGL
Description: A Time-Resolved Fluorescence Energy Transfer (TR-FRET) assay was used to show the inhibition of this cAMP production in HEK cells upon treatment with compounds of the Formula I of the present disclosure.
HEK-293 cells expressing A2A receptor (#ES-011-C) or A2B receptor (#ES 013-C) were obtained from PerkinElmer. Cells were maintained in DMEM medium supplemented with 10% FBS and 200 μg/mL of G418 at 37° C. and 5% CO2. The cells were cultured in antibiotic free medium for a period of 16-20 hours prior to the assay. All subsequent steps of the assay are performed at room temperature (22-24° C.). […] About 1500 cells per well were pre-incubated for 10 minutes with the compounds of the present invention before adding the agonist Adenosine at a high concentration (30 μM) for a total stimulation time of 30 minutes. […] The assays were conducted in a stimulation buffer containing 1×DMEM, 5 mM HEPES, 2% Human serum albumin (HSA), 100 μM Rolipram and 30 μM erythro-9-(2-hydroxy-3-nonyl) adenine (EHNA). Serial dilutions of compounds were made in stimulation buffer to achieve a final concentration of high micromolar in a reaction volume of 10 μL. The total reaction volume was 10 μL (5 μL of cells, 2.5 μL of antagonist and 2.5 μL of agonist). […] The stimulation was ended, and the reaction completed by adding 5 μL of 4× Eu-cAMP tracer working solution and 5 μL of 4× ULight-anti-cAMP working solution. The TR FRET signal was measured after 1-hour incubation using a Tecan M1000 or a PerkinElmer Victor Nivo plate reader.

A2A receptor = biological target: T2, A2A receptor (Homo sapiens, UniProt P29274); assay: A2aR antagonism IC50, cAMP TR-FRET in HEK-293 cells, high concentration of adenosine (30 μM); type: cell-based; conditions: HEK-293 cells expressing A2A receptor; agonist adenosine 30 μM; 2% HSA; inhibition of cAMP; read-out: A2AR IC50 (nM) (@30 μM Adenosine);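 also: compounds added 10 min before adenosine, then 30 min stimulation at room temperature in buffer with 100 µM rolipram and 30 µM EHNA, signal read 1 h after detection reagents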
T2 construct: host or cells: HEK-293
T2 sequence (P29274 whole entry): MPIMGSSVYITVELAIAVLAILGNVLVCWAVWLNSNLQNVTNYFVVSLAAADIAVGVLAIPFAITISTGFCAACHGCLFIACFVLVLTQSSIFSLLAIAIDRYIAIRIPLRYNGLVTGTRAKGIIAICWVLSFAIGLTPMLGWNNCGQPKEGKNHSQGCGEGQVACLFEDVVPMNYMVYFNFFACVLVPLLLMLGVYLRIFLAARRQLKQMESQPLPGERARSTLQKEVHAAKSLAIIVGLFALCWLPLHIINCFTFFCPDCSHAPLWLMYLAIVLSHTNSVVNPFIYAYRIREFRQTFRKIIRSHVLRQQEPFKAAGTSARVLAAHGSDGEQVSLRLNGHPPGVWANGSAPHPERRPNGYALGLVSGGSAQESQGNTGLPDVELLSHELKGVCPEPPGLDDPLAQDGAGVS

Row | SMILES | IC50 (A2B receptor) | IC50 (A2A receptor)
1 | CCc1c(C)nn2c(N)c(C#N)c(NCCc3ccn(C4(CCO)CC4)n3)nc12 [Example 124, 7-amino-3-ethyl-5-((2-(1-(1-(2-hydroxyethyl)cyclopropyl)-1H-pyrazol-3-yl)ethyl)amino)-2-methylpyrazolo[1,5-a] pyrimidine-6-carbonitrile] | 2220 nM | 126 nM
2 | CCc1c(C)nn2c(N)c(C#N)c(NCCc3cccn(CCCSC)c3=O)nc12 [Example 153, 7-amino-3-ethyl-2-methyl-5-((2-(1-(3-(methylthio)propyl)-2-oxo-1,2-dihydropyridin-3-yl)ethyl)amino)pyrazolo[1,5-a]pyrimidine-6-carbonitrile] | 1190 nM | 195 nM
3 | CCc1c(C)nn2c(N)c(C#N)c(NCCc3cccn(CCOC)c3=O)nc12 [Example 107, 7-amino-3-ethyl-5-((2-(1-(2-methoxyethyl)-2-oxo-1,2-dihydropyridin-3-yl)ethyl)amino)-2-methylpyrazolo[1,5-a] pyrimidine-6-carbonitrile] | 1550 nM | 224 nM
4 | Cc1nn2c(N)c(C#N)c(NCCc3cccc(CNCCO)n3)nc2c1Cl [Example 90, 7-amino-3-chloro-5-((2-(6-(((2-hydroxyethyl)amino)methyl)pyridin-2-yl)ethyl)amino)-2-methylpyrazolo[1,5-a]pyrimidine-6-carbonitrile] | 1830 nM | 77 nM
5 | CCc1c(C)nn2c(N)c(C#N)c(NCCc3cccc(C(O)C(F)(F)F)n3)nc12 (stereo not shown) [Example 135, 7-amino-3-ethyl-2-methyl-5-((2-(6-(2,2,2-trifluoro-1-hydroxyethyl)pyridine-2-yl)ethyl)amino) pyrazolo[1,5-a]pyrimidine-6 carbonitrile] | 2220 nM | 1310 nM
6 | CCc1c(C)nn2c(N)c(C#N)c(NCCc3ccn(CCC[S+](C)[O-])n3)nc12 (single isomer, unassigned; (-)) [Example 162a, (−)-7-amino-3-ethyl-2-methyl-5-((2-(1-(3-(methylsulfinyl)propyl)-1H-pyrazol-3-yl)ethyl)amino)pyrazolo[1,5-a]pyrimidine-6-carbonitrile] | 5790 nM | 1880 nM
7 | Cc1nn2c(N)c(C#N)c(NCCc3ccn(C4COCC4CO)n3)nc2c1C (single isomer, unassigned; (-)) [Example 133b, (−)-7-amino-5-((2-(1-(4-(hydroxymethyl)tetrahydrofuran-3-yl)-1H-pyrazol-3-yl)ethyl)amino)-2,3-dimethylpyrazolo[1,5-a]pyrimidine-6-carbonitrile] | 6070 nM | 136 nM
8 | Cc1nn2c(N)c(C#N)c(NCCc3ccn(C4(CO)CC4)n3)nc2c1Br [Example 69, 7-amino-3-bromo-5-((2-(1-(1-(hydroxymethyl)cyclopropyl)-1H-pyrazol-3-yl)ethyl)amino)-2-methylpyrazolo[1,5-a]pyrimidine-6-carbonitrile] | 2050 nM | 68 nM
9 | CCCc1c(C)nn2c(N)c(C#N)c(NCCc3ccn(C4CCC4CO)n3)nc12 (single isomer, unassigned; (+)) [Example 165a, (+)-7-amino-5-((2-(1-(2-(hydroxymethyl)cyclobutyl)-1H-pyrazol-3-yl)ethyl)amino)-2-methyl-3-propylpyrazolo[1,5-a]pyrimidine-6-carbonitrile] | > 15000 nM | 2160 nM
10 | CCc1c(C(F)F)nn2c(N)c(C#N)c(NCCc3cccn(CCO)c3=O)nc12 [Example 131, 7-amino-2-(difluoromethyl)-3-ethyl-5-((2-(1-(2-hydroxyethyl)-2-oxo-1,2-dihydropyridin-3-yl)ethyl)amino) pyrazolo[1,5-a]pyrimidine-6-carbonitrile] | > 15000 nM | 1460 nM
11 | CCc1c(C)nn2c(N)c(C#N)c(NCCc3cccn(CC[S+](C)[O-])c3=O)nc12 (single isomer, unassigned; (+)) [Example 144a, (+)7-amino-3-ethyl-2-methyl-5-((2-(1-(2-(methylsulfinyl)ethyl)-2-oxo-1,2-dihydropyridin-3-yl)ethyl)amino) pyrazolo[1,5-a]pyrimidine-6-carbonitrile] | 821 nM | 327 nM
12 | CCc1c(C)nn2c(N)c(C#N)c(NCCc3cccc(CCO)n3)nc12 [Example 139, 7-amino-3-ethyl-5-((2-(6-(2-hydroxyethyl)pyridine-2-yl)ethyl)amino)-2-methylpyrazolo[1,5-a]pyrimidine-6-carbonitrile] | 482 nM | 165 nM
13 | CCc1c(C)nn2c(N)c(C#N)c(NCCc3cccc(C(C)O)n3)nc12 (racemic) [Example 100, 7-amino-3-ethyl-5-((2-(6-(1-hydroxyethyl)pyridin-2-yl)ethyl)amino)-2-methylpyrazolo[1,5-a] pyrimidine-6-carbonitrile] | 1010 nM | 139 nM
14 | CCc1c(C)nn2c(N)c(C#N)c(NCCc3ccn(C4(CN)CC4)n3)nc12 [Example 146, 7-amino-5-((2-(1-(1-(aminomethyl)cyclopropyl)-1H-pyrazol-3-yl)ethyl)amino)-3-ethyl-2-methylpyrazolo[1,5-a]pyrimidine-6-carbonitrile] | 2470 nM | 255 nM
15 | COCCn1cccc(CCNc2nc3c(Cl)c(C)nn3c(N)c2C#N)c1=O [Example 92, 7-amino-3-chloro-5-((2-(1-(2-methoxyethyl)-2-oxo-1,2-dihydropyridin-3-yl)ethyl)amino)-2-methylpyrazolo[1,5-a]pyrimidine-6-carbonitrile] | 5640 nM | 79 nM
16 | CCc1c(C)nn2c(N)c(C#N)c(NCCc3cc(C)n(C4COCC4CO)n3)nc12 (single isomer, unassigned) [Example 167] | 700 nM | 100 nM
17 | CCCc1c(C)nn2c(N)c(C#N)c(NCCc3ccn(C4COCC4CO)n3)nc12 (single isomer, unassigned; (-)) [Example 160b, (−) 7-amino-5-((2-(1-(4-(hydroxymethyl)tetrahydrofuran-3-yl)-1H-pyrazol-3-yl)ethyl)amino)-2-methyl-3-propylpyrazolo[1,5-a]pyrimidine-6-carbonitrile] | 1250 nM | 341 nM
18 | Cc1nn2c(N)c(C#N)c(NCCc3ccn(CC4CC(O)C4)n3)nc2c1Cl (single isomer, unassigned; (+)) [Example 83, (+)-7-amino-3-chloro-5-((2-(1-((3-hydroxycyclobutyl)methyl)-1H-pyrazol-3-yl)ethyl)amino)-2-methylpyrazolo[1,5-a]pyrimidine-6-carbonitrile] | 2650 nM | 109 nM
19 | Cc1nn2c(N)c(C#N)c(NCCc3cnn(C4(CO)CC4)c3)nc2c1Cl [Example 73, 7-amino-3-chloro-5-((2-(1-(1-(hydroxymethyl)cyclopropyl)-1H-pyrazol-4-yl)ethyl)amino)-2-methylpyrazolo[1,5-a] pyrimidine-6-carbonitrile] | > 15000 nM | > 15000 nM
20 | Cc1nn2c(N)c(C#N)c(NCCc3cccn(C)c3=O)nc2c1Cl [Example 87, 7-amino-3-chloro-2-methyl-5-((2-(1-methyl-2-oxo-1,2-dihydropyridin 3-yl)ethyl)amino) pyrazolo[1,5-a]pyrimidine-6-carbonitrile] | 1760 nM | 80 nM
21 | CCc1c(C)nn2c(N)c(C#N)c(NCCc3ccc(F)c(CO)n3)nc12 [Example 91, 7-amino-3-ethyl-5-((2-(5-fluoro-6-(hydroxymethyl)315yridine-2-yl)ethyl)amino)-2-methylpyrazolo[1,5-a]pyrimidine-6-carbonitrile] | 1620 nM | 628 nM
22 | CCc1c(C)nn2c(N)c(C#N)c(NCCc3ccn(CCCO)n3)nc12 [Example 111, 7-amino-3-ethyl-5-((2-(1-(3-hydroxypropyl)-1H-pyrazol-3-yl)ethyl)amino)-2-methylpyrazolo[1,5-a]pyrimidine-6-carbonitrile] | 2380 nM | 666 nM
23 | CCc1c(C)nn2c(N)c(C#N)c(NCCc3ccn(C4CCC4CN)n3)nc12 (stereo not shown) [Example 109, 7-amino-5-((2-(1-(2-(aminomethyl)cyclobutyl)-1H-pyrazol-3-yl)ethyl)amino)-3-ethyl-2-methylpyrazolo[1,5-a]pyrimidine-6-carbonitrile] | 723 nM | 402 nM
24 | CCc1c(C)nn2c(N)c(C#N)c(NCCc3ccn(CCC[S+](C)[O-])n3)nc12 (single isomer, unassigned; (+)) [Example 162b, (+)-7-amino-3-ethyl-2-methyl-5-((2-(1-(3-(methylsulfinyl)propyl)-1H-pyrazol-3-yl)ethyl)amino)pyrazolo[1,5-a]pyrimidine-6-carbonitrile] | 2730 nM | 1230 nM
25 | CCc1c(C)nn2c(N)c(C#N)c(NCCc3ccn(C4CCC4CNCC(N)=O)n3)nc12 (stereo not shown) [Example 134, 2-(((2-(3-(2-((7-amino-6-cyano-3-ethyl-2-methylpyrazolo[1,5-a]pyrimidin-5-yl)amino)ethyl)-1H-pyrazol-1-yl)cyclobutyl)methyl)amino) acetamide] | 2510 nM | 475 nM
26 | Cc1nn2c(N)c(C#N)c(NCCc3ccn(C4(CO)CC4)n3)nc2c1C(F)(F)F [Example 94, 7-amino-5-((2-(1-(1-(hydroxymethyl)cyclopropyl)-1H-pyrazol-3-yl)ethyl)amino)-2-methyl-3-(trifluoromethyl) pyrazolo[1,5-a]pyrimidine-6-carbonitrile] | 10000 nM | 104 nM
